Each molecule was assayed against rabbit platelet PDE V (Oryctolagus cuniculus, UniProt G1SX67) (assay: PDE V inhibition, PDE SPA assay kit with [3H]-cGMP). Conditions: not given.
Type: biochemical
Experimental: The rabbit platelet PDE V was prepared using the method described by Hidaka et al. (Biochim. Biophys. Acta., 429: 485 - 497, 1976) with minor modification. The plateletrich plasma (PRP) was prepared by centrifugation of freshly obtained heparinized whole blood at 360 g. Platelets were isolated from the PRP by centrifugation at 1,200 g. Platelet homogenates were prepared in the homogenization buffer (50 mM Tris-HCl buffer containing 1 mM MgCl2, pH 7.4) by sonication for 30 s per 1 mL. The homogenized solutions were then centrifuged at 40,000 × g for 2 h at 4 °C. The supernatant was loaded on the DEAE-cellulose column (20 mL bed volume, Sigma) pre-equilibrated with equilibration buffer (50 mM Tris-acetate containing 3.75 mM 2-mercaptoethanol, pH 6.0). The column was then washed with 60 mL of equilibration buffer. The PDE isozymes were eluted using a continuous gradient of 0 to 600 mM sodium acetate in the equilibration buffer (60 mL total volume). The 1.0 mL fractions were collected. A flow rate of 60 mL/h was used throughout the ion-exchange chromatography procedure. PDE activities on cAMP and cGMP were characterized as described below. The characterized fractions were pooled and stored at -80 °C until the inhibition studies.
The cyclic nucleotide PDE V activity was determined using PDE SPA assay kit (Amersham Pharmacia biotech, UK). Each reaction mixture (100 µL total volume) consisted of the column elute containing PDE V (10 µL), [^3H]-cGMP (5 µCi/mL), bovine serum albumin (0. 5 mg/mL), and MgCl2 (5 mM) in Tris-HCl buffer (15 mM, pH 7. 5). The reactions were initiated by the addition of PDE V and the samples were incubated at 30 °C for 30 min, after which the reaction was stopped by the addition of 50 µL of SPA beads. The reaction tube was then settled for 20 min and was counted on the scintillation counter (Tri-carb 1500, Packard, USA). For the inhibition study of PDE V activity, the test compounds were dissolved in dimethyl sulfoxide (DMSO) and was diluted with distilled water. The final concentration of DMSO was less than 0. 2% (v/v).

`CCCOc1ccc(S(=O)(=O)N2CCN(CCOC(=O)Cc3ccccc3)CC2)cc1-c1nc2c(CCC)cn(CC)c2c(=O)[nH]1` [Example 24, 5-Ethyl-2-{5-[4-(2-phenylacetoxyethyl)piperazin-1-ylsulfonyl]-2-n-propoxyphenyl}-7-n-propyl-3,5-dihydro-4H-pyrrolo[3,2-d]pyrimidin-4-one] showed an IC50 of 8.68 nM.

Same assay, conditions: in vitro inhibition of cGMP PDE V; 30 °C, 30 min; read-out: IC50

Going from `CCCOc1ccc(S(=O)(=O)N2CCN(CCOC(C)=O)CC2)cc1-c1nc2c(CCC)cn(CC)c2c(=O)[nH]1` [Example 7, 2-{5-[4-(2-Acetoxyethyl)piperazin-1-ylsulfonyl]-2-n-propoxyphenyl}-5-ethyl-7-n-propyl-3,5-dihydro-4H-pyrrolo[3,2-d]pyrimidin-4-one] to `CCCOc1ccc(S(=O)(=O)N2CCN(CCOC(=O)CC)CC2)cc1-c1nc2c(CCC)cn(CC)c2c(=O)[nH]1` [Example 10, 5-Ethyl-2-{5-[4-(2-propionyloxyethyl)piperazin-1-ylsulfonyl]-2-n-propoxyphenyl}-7-n-propyl-3,5-dihydro-4H-pyrrolo[3,2-d]pyrimidin-4-one], the IC50 rises from 2.84 nM to 5.73 nM (2-fold).

`CCCOc1ccc(S(=O)(=O)N2CCN(CCOC(=O)CCC)CC2)cc1-c1nc2c(CCC)cn(CC)c2c(=O)[nH]1` [Example 12, 2-{5-[4-(2-Butyryloxyethyl)piperazin-1-ylsulfonyl]-2-n-propoxyphenyl}-5-ethyl-7-n-propyl-3,5-dihydro-4H-pyrrolo[3,2-d]pyrimidin-4-one] and `CCCOc1ccc(S(=O)(=O)N2CCN(CCOC(=O)OCC)CC2)cc1-c1nc2c(CCC)cn(CC)c2c(=O)[nH]1` [Example 17, 2-{5-[4-(2-Ethoxycarbonyloxyethyl)piperazin-1-ylsulfonyl]-2-n-propoxyphenyl}-5-ethyl-7-n-propyl-3,5-dihydro-4H-pyrrolo[3,2-d]pyrimidin-4-one] are within 1.5-fold of each other in IC50: 8.87 nM for the first, 7.65 nM for the second.

Compared with `CCCOc1ccc(S(=O)(=O)N2CCN(CCOC(=O)C(C)C)CC2)cc1-c1nc2c(CCC)cn(CC)c2c(=O)[nH]1` [Example 14, 5-Ethyl-2-{5-[4-(2-isobutyryloxyethyl)piperazin-1-ylsulfonyl]-2-n-propoxyphenyl}-7-n-propyl-3,5-dihydro-4H-pyrrolo[3,2-d]pyrimidin-4-one], `CCCOc1ccc(S(=O)(=O)N2CCN(CCOC(C)=O)CC2)cc1-c1nc2c(CCCF)cn(CC)c2c(=O)[nH]1` [Example 19, 2-{5-[4-(2-Acetoxyethyl)piperazin-1-ylsulfonyl]-2-n-propoxyphenyl}-5-ethyl-7-(3-fluoropropyl)-3,5-dihydro-4H-pyrrolo[3,2-d]pyrimidin-4-one] is 5.9-fold lower in IC50: 8.8 nM for the first, 1.48 nM for the second. The second is the more potent here.

In the case of `CCCOc1ccc(S(=O)(=O)N2CCN(CCOC(=O)c3ccccc3)CC2)cc1-c1nc2c(CCC)cn(CC)c2c(=O)[nH]1` [Example 16, 2-{5-[4-(2-Benzoyloxyethyl)piperazin-1-ylsulfonyl]-2-n-propoxyphenyl}-5-ethyl-7-n-propyl-3,5-dihydro-4H-pyrrolo[3,2-d]pyrimidin-4-one], the IC50 is reported as 14.4 nM.

Reference: EP1362858A1, “Pyrrolopyrimidinone derivates, process of preparation and use” (SK Chemicals Co., Ltd., priority 2002, dated 2003)
